Experimental findings from patent US20160151406A1, “COMBINATION CANCER THERAPY WITH C-MET INHIBITORS AND SYNTHETIC OLIGONUCLEOTIDES” (Mirna Therapeutics, Inc., priority 2014, published 2016) are described below.

Common to all, as to assay type: cell-based
The subject of one assay is HepG2 HCC cells. Nature of the assay: Single-agent cell proliferation (AlamarBlue), HepG2. To be noted: Homo sapiens, 72 h, drug alone, proliferation 3 days post drug treatment, read-out: Tivantinib IC50. The procedure:
(§1) Cell culture: HCC cells were maintained in EMEM medium with 10% fetal bovine serum, except Huh7 were maintained in DMEM. All cells were maintained at 37° C. in a humidified of 95% air and 5% CO2.
(§2) miR-Rx34 and tivantinib and EMD1214063 treatment: To determine the IC50 value of each drug alone, 2,000 cells per well were seeded in a 96-well plate format and treated with either tivantinib or miR-Rx34 as follows. (i) miR-Rx34 was reverse-transfected in triplicates in a serial dilution (0.03-30 nM) using RNAiMax lipofectamine. As controls, cells were also transfected with RNAiMax alone (mock). Cells were incubated with AlamarBlue (Invitrogen) 6 days post transfection to determine cellular proliferation. Proliferation data were normalized to mock-transfected cells. (ii) Tivantinib or EMD1214063, prepared as a 10 mM stock solution in dimethyl sulfoxide (DMSO), was added to cells 3 days after seeding at a final concentration ranging from 0.1 to 100 μM for tivantinib and 0.01 and 10 μM for EMD1214063. Solvent alone (1% final DMSO) was added to cells in separate wells as a control. Three days thereafter, cellular proliferation was measured by AlamarBlue and normalized to the solvent control.
(§3) Statistical analysis: Statistical analysis was done using the Excel (Microsoft) and Graphpad software. Averages and standard deviations were calculated from triplicate experiments. […]

In another assay the test system is Huh7 HCC cells. Nature of the assay: Single-agent cell proliferation (AlamarBlue), Huh7. The conditions noted are these: Homo sapiens, Huh-7, 72 h, drug alone, proliferation 3 days post drug treatment, read-out: Tivantinib IC50. The protocol: as §1, §2, §3
In general terms: Resazurin is reduced to fluorescent resorufin, in cell work by metabolically active cells.

A further assay relates to C3A HCC cells. Nature of the assay: Single-agent cell proliferation (AlamarBlue), C3A. To be noted: Homo sapiens, 72 h, drug alone, proliferation 3 days post drug treatment. The protocol:
as §1, §2, §3

Another assay has as its system Hep3b HCC cells. Put plainly: Single-agent cell proliferation (AlamarBlue), Hep3b. The conditions noted are these: Homo sapiens, 72 h, drug alone, proliferation 3 days post drug treatment, read-out: Tivantinib IC50. The procedure: as §1, §2, §3
A further assay relates to SK-Hep1 HCC cells. Put plainly: Single-agent cell proliferation (AlamarBlue), SK-Hep1. To be noted: Homo sapiens, 72 h, drug alone, proliferation 3 days post drug treatment, read-out: EMD1214063 IC50. The procedure: as §1, §2, §3

Like-named read-outs stand apart in the source and are kept apart here.

What is called IC50 is the midpoint of a concentration-inhibition curve. For the compound `O=C1NC(=O)[C@@H](c2cn3c4c(cccc24)CCC3)[C@@H]1c1c[nH]c2ccccc12` [Tivantinib, (3R,4R)-3-(5,6-Dihydro-4H-pyrrolo[3,2,1-ij]quinolin-1-yl)-4-(1H-indol-3-yl)-2,5-pyrrolidinedione], the IC50 in the assay on HepG2 HCC cells was 8.99 to 25 µM; in the assay with Huh7 HCC cells, 1500 to 3320 nM; in the assay on C3A HCC cells (read-out: Tivantinib IC50), 2.3 to 7.42 µM; in the assay with Hep3b HCC cells, 4.63 to 18.6 µM.
`CN1CCC(COc2cnc(-c3cccc(Cn4nc(-c5cccc(C#N)c5)ccc4=O)c3)nc2)CC1` [EMD1214063, 3-(1-(3-(5-((1-methylpiperidin-4-yl)methoxy)pyrimidin-2-yl)benzyl)-1,6-dihydro-6-oxopyridazin-3-yl)benzonitrile]: the IC50 in the assay with SK-Hep1 HCC cells stood at 6.7 µM; in the assay with C3A HCC cells (read-out: EMD1214063 IC50) it was 7 µM.
